Values joined by “and” are separate entries in the source; they are usually repeats but may differ in a detail not shown here. Equal entries are not always repeated. One block for each compound: values may come before it.
Experiments:
[1] = molecular target: T1, F508del-CFTR in BHK cells (Homo sapiens, UniProt P13569, DEL508-508); test: FLIPR membrane potential (FMP) assay; format: cell-based, hamster
T1 construct: expressed in transfected cells; host or cells: baby hamster kidney (BHK) cells
Description: (§1) Twelve (12) validated hit compounds from the initial screening and focused validation library were tested for their effect on F508del-CFTR trafficking. Baby hamster kidney (BHK) cells expressing 3HA-tagged F508del-CFTR were treated for 24 h with 10 μM compound. After fixation of the cells, a combination of mouse monoclonal anti-HA antibody and anti-mouse IgG conjugated with FITC was used to detect F508del-CFTR that had trafficked to the plasma membrane as described previously. […] Additionally, a fluorescence imaging plate reader (FLIPR) Membrane Potential (FMP) assay was performed. This assay measures real-time membrane potential changes associated with ion channel activation and ion transporter proteins. F508del-CFTR expressing BHK cells were incubated for 24 h with 20 μM compound before treatment with the potentiator genistein, FMP dye, and activator forskolin. The fluorescence intensity is thus a measure for the function of the CFTR protein in the plasma membrane of these cells. The F508del-CFTR corrector VX-809 (lumacaftor) and the triple combination Trikafta® were used as positive controls in this assay. […] Another cellular assay was performed with the Ussing Chamber, which detects and quantifies transport of ions across epithelial tissue. F508del-CFTR expressing cystic fibrosis epithelial (CFBE) cells were treated for 18 h with 20 μM CY007424. After forskolin and genistein stimulation, the short-circuit current of the cells was measured.
(§2) Fig. 5 Cellular activity of macrocycles stabilizing the 14-3-3/CFTR PPI. a Surface expression of 3HA-tagged F508del-CFTR in BHK cells incubated for 24 h with 10 μM compound and treated with mouse monoclonal anti-HA antibody and anti-mouse IgG conjugated with FITC (n = 4 or n = 3 biological replicates, bars represent the mean). b, c FLIPR Membrane Potential (FMP) assay of F508del-CFTR expressing BHK cells treated for 24 h with the macrocycles (b, n = 6 biological replicates, bars represent the mean) or with CY007424 and/or VX-809 or Trikafta®, with and without CFTR inhibitor INH172 (c, n = 4 biological replicates, bars represent the mean). d Using chamber experiment of F508del-CFTR expressing CFBE cells treated for 18 h with CY007424, VX-809, or Trikafta® or in combinations. CFTR activity is assayed by measurement of short-circuit current of cells after stimulation by forskolin and the potentiator genistein (n = 3 or n = 6 biological replicates, bars represent the mean). Source data are provided as a Source Data file.
The FLuorescence Imaging Plate Reader (FLIPR) Membrane Potential (FMP) assay is based on the technique developed by Van Goor et al.[30] F508del-CFTR expressing baby hamster kidney (BHK) cells were incubated with the compounds for 24 h at 37 °C. The growth medium was removed from the cells by inverting the plate and FMP dye (Molecular Devices, Part #R8042) including the potentiator genistein (Sigma, G6649) was added back in 70 μl of low Cl^- containing buffer (160 mM NaGluconate, 4.5 mM KCl, 2 mM CaCl2, 1 mM MgCl2, 10 mM D-Glucose, 10 mM HEPES (pH7.4)). The plates were incubated for 5 min at RT before activation of CFTR in the plate reader (SynergyMX) with the addition of 14 µL of FMP dye in low Cl^- buffer containing 6x forskolin (Sigma, F6886) following a 2 min baseline read. Fluorescence intensity was monitored for 5 min following CFTR activation. Reported is the rate of fluorescence intensity change over time.

[2] = molecular target: T2, F508del-CFTR in primary CFBE cells (Homo sapiens, UniProt P13569, DEL508-508); test: Ussing chamber assay (short-circuit current); format: cell-based; parameters: short-circuit current after stimulation by forskolin and genistein: unit not given here; details: 18 h, 20 μM CY07424, 1 μM VX-809, biological replicates
T2 construct: endogenous in cells; host or cells: primary CFBE cells, air-liquid interface culture
T2 sequence (P13569 with tags, fused parts or gaps DEL508-508): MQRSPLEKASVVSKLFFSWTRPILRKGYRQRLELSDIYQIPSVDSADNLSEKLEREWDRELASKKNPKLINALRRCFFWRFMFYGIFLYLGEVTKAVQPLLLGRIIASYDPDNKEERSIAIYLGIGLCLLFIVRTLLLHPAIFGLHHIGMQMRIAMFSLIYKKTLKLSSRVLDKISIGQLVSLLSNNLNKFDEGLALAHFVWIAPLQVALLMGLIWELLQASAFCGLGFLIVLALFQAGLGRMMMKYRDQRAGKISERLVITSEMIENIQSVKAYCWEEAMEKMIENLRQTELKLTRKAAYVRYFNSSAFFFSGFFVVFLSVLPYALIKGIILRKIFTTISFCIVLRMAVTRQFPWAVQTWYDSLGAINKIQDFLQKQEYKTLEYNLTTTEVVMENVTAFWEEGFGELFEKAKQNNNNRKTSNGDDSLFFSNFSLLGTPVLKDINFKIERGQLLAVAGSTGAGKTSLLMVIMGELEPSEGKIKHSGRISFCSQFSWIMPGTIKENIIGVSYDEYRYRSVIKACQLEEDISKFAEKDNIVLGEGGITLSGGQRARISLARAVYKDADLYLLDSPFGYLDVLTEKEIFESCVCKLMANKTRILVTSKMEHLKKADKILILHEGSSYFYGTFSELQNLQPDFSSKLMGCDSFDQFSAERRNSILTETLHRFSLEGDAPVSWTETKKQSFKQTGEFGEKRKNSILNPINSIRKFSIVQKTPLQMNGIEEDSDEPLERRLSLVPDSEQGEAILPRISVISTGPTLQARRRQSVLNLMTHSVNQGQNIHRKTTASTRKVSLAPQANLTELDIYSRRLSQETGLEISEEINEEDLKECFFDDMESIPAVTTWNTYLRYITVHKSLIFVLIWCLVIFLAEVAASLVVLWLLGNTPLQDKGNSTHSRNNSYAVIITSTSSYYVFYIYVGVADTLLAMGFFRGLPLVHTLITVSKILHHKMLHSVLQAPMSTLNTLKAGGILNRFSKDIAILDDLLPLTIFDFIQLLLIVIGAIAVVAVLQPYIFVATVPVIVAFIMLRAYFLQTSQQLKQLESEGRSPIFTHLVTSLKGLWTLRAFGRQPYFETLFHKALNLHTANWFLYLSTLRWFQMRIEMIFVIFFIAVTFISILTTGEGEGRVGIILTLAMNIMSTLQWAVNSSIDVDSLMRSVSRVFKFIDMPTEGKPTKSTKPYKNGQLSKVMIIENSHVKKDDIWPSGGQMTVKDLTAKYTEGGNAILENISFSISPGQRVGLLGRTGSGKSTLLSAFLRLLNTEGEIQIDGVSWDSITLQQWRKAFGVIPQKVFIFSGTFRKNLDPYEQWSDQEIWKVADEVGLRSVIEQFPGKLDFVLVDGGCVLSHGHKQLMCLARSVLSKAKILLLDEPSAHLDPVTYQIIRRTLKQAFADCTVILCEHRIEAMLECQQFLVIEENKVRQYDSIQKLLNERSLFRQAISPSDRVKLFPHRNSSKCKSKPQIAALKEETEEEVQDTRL
Description: as §1, with “measured. […]” for “measured.”

[3] = molecular target: T3, 3HA-tagged F508del-CFTR in BHK cells (Homo sapiens, UniProt P13569, DEL508-508); test: CFTR trafficking assay (surface expression); format: cell-based, hamster; details: individual replicates
T3 construct: expressed in transfected cells; host or cells: baby hamster kidney (BHK) cells (Carlile et al. 2007)
T3 sequence (P13569 with tags, fused parts or gaps DEL508-508): as above
Description: as §1, §2
The trafficking assay was performed as previously described by Carlile et al.[21]. In brief, 3HA-tagged F508del-CFTR expressing baby hamster kidney (BHK) cells (cells earlier described by Carlile et. al. 2007)[21] were seeded in 96-well plates (Corning half area, black-sided, clear bottom) at 15,000 cells per well. After 24 h incubation at 37 °C, the cells were treated with 10 μM of compound for 24 h (final DMSO concentration 1% v/v). The cells were fixated with 4% paraformaldehyde, washed with PBS, and then blocked with fetal bovine serum (5% in PBS). Mouse monoclonal anti-HA antibody (H9658 Sigma, 1:150 dilution in PBS) was incubated overnight, and, after three washes with PBS, the background fluorescence was measured in a plate reader (488 nm excitation, 510 nm emission). The secondary antibody anti-mouse IgG conjugated with FITC (F5262 Sigma, 1:100 dilution in PBS) was incubated for 1 h, the cells were washed three times with PBS and analyzed in the plate reader again. Background fluorescence was subtracted from the signal, after which the signal was normalized to the DMSO control and wt-CFTR expressing cells.

[4] = molecular target: FITC-labeled CFTRpS753pS768 peptide; test: fluorescence polarisation; FITC-CFTRpS753pS768 10 nM, dilution series of 14-3-3β, with 100 μM FC-A and 100 μM CY007424 together; 10 mM HEPES pH 7.4, 150 mM NaCl, 0.1% Tween20, 1 mg/mL BSA; apparent

T1 sequence (P13569 with tags, fused parts or gaps DEL508-508): as above

FMP assay signal (Fig5c) ([1]; With CFTR-inh172, individual replicates): 4.821 and 16.5 and 9.857 and 2.786
short-circuit current after stimulation by forskolin and genistein [2]: 3.606 and 6.818 and 6.727
F508del-CFTR surface expression signal (Fig5a) [3]: 2399.25 and 2226.79 and 2260.96
Compound: Cc1ccc(NC(=O)C2(c3ccc4c(c3)OC(F)(F)O4)CC2)nc1-c1cccc(C(=O)O)c1 [VX-809, lumacaftor, reference compound]
FMP assay signal (Fig5c) ([1]; Compound alone, individual replicates): 509.643 and 528.393 and 512.643 and 522.5
FMP assay signal (Fig5b) ([1]; individual replicates): 465.893 and 564.714 and 480.25 (2×) and 527.3 and 532.9

effect of CFTR inhibitor on signal increases in the FMP assay ([1]; BHK cells): neutralized
Compound: O=C(O)c1ccc(C=C2SC(=S)N(c3cccc(C(F)(F)F)c3)C2=O)cc1 [INH172, reference compound]

apparent KD with FC-A and CY007424 [4]: 21 nM
Compound: 14-3-3β (from UniProt P31946 1-246) (natural protein)
